In article PMC11359702, “Synthesis and Biochemical Evaluation of Ethanoanthracenes and Related Compounds: Antiproliferative and Pro-Apoptotic Effects in Chronic Lymphocytic Leukemia (CLL)” (Pharmaceuticals, 2024):
pIC50: −log10 of the molar value. “And” between values parts separate entries of the source, which are not always exact repeats. Identical values can stand only once. Like-named read-outs stand apart in the source and are kept apart here.

Legend:
PGA-1 cells = assay: alamarBlue cell viability assay; conditions: Homo sapiens, 24 h; for viability at 10 µM: read-out: cell viability; for pIC50: read-out: PGA-1 IC50
HG-3 cells [1] = conditions: 10 µM
[2] = HPLC stability study in phosphate buffers; format: physicochemical; conditions: for recovery at 24 h: over the pH range studied (pH 4, 7.4 and 9); for remaining at 24 h, 14.6 µg/mL / half-life at 14.6 µg/mL: phosphate buffer; for remaining at 24 h, 14.6 µg/mL / % remaining 24 h pH 4 / % remaining 24 h pH 7.4 / % remaining 24 h pH 9: HPLC
Procedure: A preliminary stability study was carried out on selected chalcones, maleic anhydride and maleimide adducts at acidic, neutral and basic conditions (pH 4, 7.4 and 9) using HPLC to determine suitability for further preclinical investigations. […] A possible degradation route for the maleimide 23n could be through the hydrolysis of the cyclic imide of the maleimide ring, leading to the resultant amic acid product.
All samples were analyzed using acetonitrile–water (80:20%, 70:30%, 60:40% isocratic) as the mobile phase over 10 min and a flow rate of 1 mL/min. Stock solutions were prepared by dissolving 5 mg of compounds in a mobile phase ([(acetonitrile (80%): water (20%)], 10 mL). Anhydride 22h was not detected at its retention time of 5.2 min at pH 9.0. The data presented represent the results of single experiments.
The HPLC stability studies for compounds 21a, 21i, 22h, 23a, 23g, 23n, 24a, 24h, 26a and 26n were performed using a Symmetry® column (C18, 5 µm, 4.6 × 150 mm), a Waters 2487 Dual Wavelength Absorbance detector, and an HPLC pump: Waters 1525 binary and Autosampler; Waters 717 plus (Waters Corporation, Milford, MA, USA), mobile phase [(acetonitrile (80%) and water (20%)] with a typical run time of 10 min and a flow rate of 1 mL/min with detection at 254 nm. The selected compounds 21a, 21i, 22h, 23a, 23g, 23n, 24a, 24h, 26a and 26n (5 mg) in the mobile phase (10 mL) provided the stock solution for the analysis. The phosphate buffers were prepared at pH values of 4, 7.4 and 9, as described in the British Pharmacopoeia monograph 2019. The stock solution (30 µL) was added to the appropriate buffer (1 mL) and retained at 37 °C. Samples were then analyzed over the following 24-h period at selected time intervals (t = 0 min, 5 min, 30 min, 60 min, 90 min, 120 min and 24 h).

HG-3 cells [3] = assay: alamarBlue cell viability assay; conditions: Homo sapiens, HG-3, 24 h; for viability at 10 µM: read-out: cell viability, HG-3, 10 µM, 24 h, vehicle = 100%; for pIC50: read-out: HG-3 IC50
[4] = system: HG-3 and PGA-1 cell lines; assay: alamarBlue cell viability assay, mean of both CLL cell lines; format: cell-based, human; conditions: Homo sapiens, CLL cell; mean of HG-3 and PGA-1

O=C(/C=C/c1c2ccccc2cc2ccccc12)c1ccc(F)cc1 [Compound 21h, (E)-3-(anthracen-9-yl)-1-(4-fluorophenyl)prop-2-en-1-one]
viability at 10 µM (PGA-1 cells): 70%

O=C(C=CC12c3ccccc3C(c3ccccc31)C1C(=O)N(c3ccccc3)C(=O)C12)c1cccs1 (centres unmarked) [Compound 24q, 9-(E)-3-Oxo-3-(thiophen-2-yl)prop-1-en-1-yl)-13-phenyl-9,10-dihydro-9,10-[3,4]epipyrroloanthracene-12,14-dione]
cell viability (HG-3 cells [1]): 24%

O=C(/C=C/C12c3ccccc3C(c3ccccc31)C1C(=O)N(c3ccccc3)C(=O)C12)c1ccc(Br)cc1 (centres unmarked) [Compound 24a]
recovery at 24 h [2]: < 50% | remaining at 24 h, 14.6 µg/mL ([2]; pH 4 buffer, 37 °C, read-out: % remaining 24 h pH 4): 48.4% | half-life at 14.6 µg/mL ([2]; pH 4 buffer, 37 °C, read-out: Half-life pH 4 (converted)): 4.17 h | remaining at 24 h, 14.6 µg/mL ([2]; pH 7.4 buffer, 37 °C, read-out: % remaining 24 h pH 7.4): 45.2% | half-life at 14.6 µg/mL ([2]; pH 7.4 buffer, 37 °C, read-out: Half-life pH 7.4 (converted)): 23.5 h | remaining at 24 h, 14.6 µg/mL ([2]; pH 9 buffer, 37 °C, read-out: % remaining 24 h pH 9): 33.6% | half-life at 14.6 µg/mL ([2]; pH 9 buffer, 37 °C, read-out: Half-life pH 9 (converted)): 23.5 h | viability at 10 µM (HG-3 cells [3]): 14% | viability at 10 µM (PGA-1 cells): 25%

O=C1NC(=O)C2C1C1c3ccccc3C2(C=C[N+](=O)[O-])c2ccccc21 (centres unmarked) [Compound 20d]
pIC50 (HG-3 cells [3]): 6.11 | viability at 10 µM (HG-3 cells [3]): 14 to 43% | pIC50 [4]: 6.11 | pIC50 (PGA-1 cells): 6.12 | viability at 10 µM (PGA-1 cells): 17%

N#CC1CC2c3ccccc3C1(/C=C/[N+](=O)[O-])c1ccccc12 (centres unmarked) [Compound 20e]
pIC50 (HG-3 cells [3]): 5.80 | viability at 10 µM (HG-3 cells [3]): 14 to 43% | pIC50 [4]: 5.85 | pIC50 (PGA-1 cells): 5.96 | viability at 10 µM (PGA-1 cells): 3%

Nc1nc(F)nc2c1ncn2[C@@H]1O[C@H](CO)[C@@H](O)[C@@H]1O [Fludarabine, fludarabine, reference compound]
pIC50 (HG-3 cells [3]): 4.55 | pIC50 [4]: 4.52 | pIC50 (PGA-1 cells): 4.49

O=C(C=CC12c3ccccc3C(c3ccccc31)C1C(=O)N(c3ccc(Cl)cc3)C(=O)C12)c1cccs1 (centres unmarked) [Compound 25q, (E)-13-(4-Chlorophenyl)-9-(3-oxo-3-(thiophen-2-yl)prop-1-en-1-yl)-9,10-dihydro-9,10-[3,4]epipyrroloanthracene-12,14-dione]
cell viability (HG-3 cells [1]): 47%

O=C(/C=C/C12c3ccccc3C(c3ccccc31)C1C(=O)N(c3ccccc3)C(=O)C12)c1ccc(F)cc1 (centres unmarked) [Compound 24h]
Half-life pH 4 ([2]; pH 4 buffer, 37 °C): 14.8 h | % remaining 24 h pH 4 ([2]; pH 4 buffer, 37 °C): 25% and 24.97% | Half-life pH 7.4 ([2]; pH 7.4 buffer, 37 °C): > 24 h | % remaining 24 h pH 7.4 ([2]; pH 7.4 buffer, 37 °C): 80% and 79.48% | Half-life pH 9 ([2]; pH 9 buffer, 37 °C): > 24 h | % remaining 24 h pH 9 ([2]; pH 9 buffer, 37 °C): 81% and 80.99%

O=C1C2C(C(=O)N1c1ccccc1)C1(/C=C/[N+](=O)[O-])c3ccccc3C2(Cl)c2ccccc21 (centres unmarked) [Compound 20g]
viability at 10 µM (HG-3 cells [3]): 2% | viability at 10 µM (PGA-1 cells): 1%

O=C(/C=C/C12c3ccccc3C(c3ccccc31)C1C(=O)OC(=O)C12)c1ccc(F)cc1 (centres unmarked) [Compound 22h]
recovery at 24 h [2]: < 50% | Half-life pH 4 ([2]; pH 4 buffer, 37 °C): 2.1 h | % remaining 24 h pH 4 ([2]; pH 4 buffer, 37 °C): 0.81% | Half-life pH 7.4 ([2]; pH 7.4 buffer, 37 °C): 1 h | % remaining 24 h pH 7.4 ([2]; pH 7.4 buffer, 37 °C): 3.13% | % remaining 24 h pH 9 ([2]; pH 9 buffer, 37 °C): not detected

O=C(c1ccccc1)c1ccc(N2C(=O)C3C4c5ccccc5C(/C=C/[N+](=O)[O-])(c5ccccc54)C3C2=O)cc1 (centres unmarked) [Compound 20c]
pIC50 (HG-3 cells [3]): 6.15 | viability at 10 µM (HG-3 cells [3]): 11% | pIC50 [4]: 6.10 | pIC50 (PGA-1 cells): 6.06 | viability at 10 µM (PGA-1 cells): 4%

COc1ccc(C(=O)/C=C/c2c3ccccc3cc3ccccc23)cc1OC [Compound 21e, (E)-3-(Anthracen-9-yl)-1-(3,4-dimethoxyphenyl)prop-2-en-1-one]
viability at 1 µM (HG-3 cells [3]; read-out: cell viability, HG-3, 1 µM, 24 h, vehicle = 100%): 50 to 61% | viability at 10 µM (HG-3 cells [3]): 37 to 54%

O=C(/C=C/c1c2ccccc2cc2ccccc12)c1ccc(Cl)cc1 [Compound 21l, (E)-3-(anthracen-9-yl)-1-(4-chlorophenyl)prop-2-en-1-one]
viability at 10 µM (PGA-1 cells): 70%
